Patent publication US20110138488A1, “DEFICIENCY IN THE HISTONE DEMETHYLASE JHDM2A RESULTS IN IMPAIRED ENERGY EXPENDITURE AND OBESITY” (priority 2008, published 2011)

Experiments:
[1] = test system: Ucp1 enhancer; test: ChIP analysis at the Ucp1 enhancer in HIB1B cells after ISO treatment; type: cell-based; conditions: control HIB1B cells
Source text: The Jhdm2a knock-down-induced increase in H3K9me2 level could be partially rescued by overexpression of JHDM2A coupled with ISO treatment. *P<0.05.
Results are normalized to IgG, and are shown as the fold-enrichment relative to that in the control cells without ISO. *P<0.05.
The possibility that Jhdm2a directly regulates Ucp1 expression was subsequently examined. […] The binding was site-specific as Jhdm2a was not detected within the Ucp1 coding region, see FIG. 39, amplicon B).
In addition to removing the repressive H3K9me2 mark at the Ucp1 enhancer, Jhdm2a could contribute to Ucp1 activation by affecting the recruitment of transcription factors and co-activators. To examine this possibility, the effect of the loss of Jhdm2a on the recruitment of transcription factors (PPARγ, Rxrα and Atf2) and co-activators (Pgc1α, CBP/p300 and Src1) was analyzed. […] However, the enhanced binding by PPARγ and Rxra disappeared in the Jhdm2a knock-down cells, see FIG. 41. Similar results were also observed for the co-activators, see FIG. 42. […] Collectively, the data herein indicate that Jhdm2a contributes to β-adrenergic-stimulated Ucp1 activation by maintaining a low level of H3K9me2 at the Ucp1 enhancer region, and by augmenting the recruitment of PPARγ and Rxrα and their co-activators to the Ucp1 enhancer element.

[2] = test system: HIB1B cells; test: qRT-PCR and western blot of Jhdm2a in HIB1B cells after ISO; type: cell-based
Procedure: Given that cold-induced Ucp1 upregulation is intact in the PPARα-deficient mice (Kersten, et al., J. Clin. Invest. 103:1489 (1999)), the possibility was explored that Jhdm2a directly regulates Ucp1 expression in response to cold exposure. To ascertain that the effect of Jhdm2a on Ucp1 expression was cell-intrinsic, short-hairpin RNA (shRNA)-mediated was performed in the brown adipose cell line HIB1B using lentivirus-based shRNA. To generate a Jhdm2a knock-down HIB1B cell line, undifferentiated cells were infected with a lentiviral virus expressing a shRNA for Jhdm2a or control. The shRNA sequence for Jhdm2a was 5′-GCAGGTGTCACTAGCCTTAAT-3′ (SEQ ID NO:76). The differentiation of HIB1B cells was performed as previously described (Ross, et al., Proc. Natl. Acad. Sci. USA 89:7561 (1992)). […] Importantly, enforced overexpression of human JHDM2A in the knock-down cells partially rescued Ucp1 expression, see FIG. 36B. […] ISO-induced upregulation of Pgcla was also maintained in HIB1B knock-down cells, see FIG. 38.

[3] = test system: primary myotubes; test: AICAR-induced respiration (oxygen consumption) in primary myotubes; type: cell-based, mouse; conditions: wild-type (Jhdm2a+/+) primary myotubes, 500 μM AICAR for 16 hours
Procedure: Jhdm2a^+/+ and Jhdm2a^−/− primary myotubes were treated with 500 μM AICAR for 16 hours. Rates of oxygen consumption were normalized to cell counts. *p<0.05. The effect of Jhdm2a deficiency on energy expenditure was analyzed. Systemic energy expenditure includes basal metabolic rate, physical activity, and adaptive thermogenesis (Spiegelman, Cell 104, 531 (2001)). Metabolic studies were performed using TSE LabMaster calorimetry Module (TSE-System) in the Clinical Nutrition Research Unit at the University of North Carolina. For respiration measurements, cultured cells were resuspended in PBS. Oxygen consumption was measured using a Clarke-type electrode (Diamond General) at baseline, and after treatment with 10 μM isoproterenol (ISO) (Wu, Cell 98, 115 (1999)). For normalization of the respiration rates, an aliquot of the cells was lysed and protein concentration was measured. […] The decreased energy expenditure of the Jhdm2a KO mice was not a result of abnormal metabolic hormone secretion. […] Activation of AMPK signaling was determined by treating C2C12 myotubes with 800 μM AICAR (Sigma Aldrich) for 16 hours. […] To gain further support for the involvement of JHDM2A in AMPK-mediated mitochondrial function, the effect of Jhdm2a-deficiency on AMPK activation-mediated respiration in primary myotubes was measured.

[4] = test system: PGC-1α promoter; conditions: control C2C12 cells, AICAR treatment
Procedure: Wild-type and Jhdm2a knock-down C2C12 myotubes with or without AICAR treatment were used for ChIP followed by qPCR. Antibodies against H3K9me1 and H3K9me2 were used in the ChIP assays. Results were normalized to input, and are shown as fold of enrichment relative to that in the wild-type C2C12 cells without AICAR treatment. *p<0.05.
To determine whether PGC-1α is a direct target of JHDM2A, ChIP assays were performed. Ctrl or Jhdm2a KD C2C12 myotubes with or without AICAR treatment were used for ChIP analysis with histone modification-specific antibodies and anti-JHDM2A as described previously (Okada, Nature 450, 119 (2007)).

SMILES	H3K9me2 levels at the Jhdm2a binding site of the Ucp1 enhancer [1]	binding of PPARγ, Rxrα and Atf2 to the Ucp1 enhancer [1]	Jhdm2a messenger RNA and protein levels [2]	respiration (rate of oxygen consumption) [3]	H3K9me1 and H3K9me2 levels at the PGC-1α promoter [4]
CC(C)NCC(O)c1ccc(O)c(O)c1 (centres unmarked) [ISO, isoproterenol]	specifically decreased	increased	upregulated	–	–
NC(=O)c1ncn([C@@H]2O[C@H](CO)[C@@H](O)[C@H]2O)c1N [AICAR]	–	–	–	increased respiration	decreased
